One may read the EC50 as the concentration needed to bring the measured effect to its halfway point.

Data set [1] deals with NF-κB. The experiment in a line: LPS-induced NF-κB-driven luciferase gene reporter assay in THP-1 Lucia monocytes. Conditions: for Rel. Slope: HS relative to LXA4 (1); for IC50: Homo sapiens, THP-1, read-out: Potency IC50; for IC50 / IC50 (range in words): LPS 50 ng/mL, 24 h; for Potency Rel. Pot.: IC50 relative to LXA4 (1); for Efficacy Rel. Eff.: Imax relative to LXA4 (1); for reduction of LPS-induced NF-κB-driven luciferase activity: approximate extent, 1 pM–1 μM; for (Single component) Rel. Score: Rel. Pot. / (Single component) Rel. Score: Rel. Sl.: score relative to LXA4 (1); for (Aggregate) Rel. PD Score: sum of efficacy, potency, slope scores relative to LXA4 (1). Type of data set: cell-based, human. The protocol:
Mycoplasma-free THP-1-Lucia NF-κB cells were grown in an RPMI 1640 (Gibco) medium containing 2 mM L-glutamine, 1.50 g/L sodium bicarbonate, 4.50 g/L glucose, 10 mM N-(2-hydroxyethyl)piperazine-N′-ethanesulfonic acid (HEPES), and 1 mM sodium pyruvate. Then, 10% heat-inactivated fetal bovine serum (FBS) (30 min at 56 °C), 100 μg/mL Normocin, and Pen-Strep (50 U/mL to 50 μg/mL) were also added to the growth media. As THP-1-Lucia cells were resistant to Zeocin, the latter was used as a selective antibiotic (a high dose, i.e., 100 μg/mL, was alternated every 2 weeks with a low dose, i.e., 10 μg/mL).
LXA41 and all of the tested sLXms were dissolved in ethanol and further diluted in a culture medium (final ethanol concentration 0.1%; equivalent concentrations were used as the vehicle control). Prior to in vitro experiments, THP-1-Lucia NF-κB cells were harvested and plated at 1 × 10^5 cells/well on 96-well plates and left to settle in the incubator at 37 °C, 95% humidity, and 5% CO2, in 0.1% FBS-containing media, pretreated for 30 min with increasing doses of LXA41, sLXms (from 10^–12 to 10^–6 M), or appropriate controls, followed by stimulation with 50 ng/mL LPS for 24 h.
NFκB activity was monitored in the human THP-1 monocytic leukemia cell line containing a stably integrated NF-κB-inducible Lucia reporter construct (as previously reported).[21] When stimulated with LPS, the transcription factor NF-κB is activated, upregulating the synthesis of proinflammatory mediators, thus bringing about an inflammatory response. In these cells, NF-κB activation is linked to a […] luciferase gene and can be measured using luminescence.
Heat-killed listeria monocytogenes (HKLM) (10^8/mL) was used as a positive control.[28] The levels of NF-κB-induced Luciferase were then measured in a culture supernatant using QUANTI-Luc as the detection reagent, and measurements were taken on a bioluminescence reader.
After 24 h, the levels of NF-κB-induced Lucia were assayed in a cell culture supernatant using QUANTI-Luc, as a detection reagent, on a bioluminescence reader (Synergy HT, BioTek Instruments, Inc. Vermont). Aliquots of the supernatant were retained for subsequent cytokine and LDH assays. Cellular proteins were extracted with a radioimmunoprecipitation assay (RIPA) buffer (Thermo Fisher, Ireland), supplemented with protease inhibitors (Sigma-Aldrich, Ireland). Lysates were clarified by centrifugation (3200g, 10’, 4 °C) to remove cell debris, and the cell protein level was quantified by performing a bicinchoninic acid (BCA) assay (as per the manufacturer’s instructions) reading the protein absorbance at 570 nm, using a spectrophotometer (SPECTRAMAX M2, Molecular Devices (U.K.) Limited). A “relative luminescence unit” (RLU) was obtained using the average value of the lum/abs ratio of two replicates.
The “coding” of the heat-map indicates the arbitrary criteria to assign points to each single PD component (efficacy = Imax or Emax; potency = IC50 or EC50; slope = HS) to generate a final (aggregate) relative PD score. […] If a single PD component was equal to the reference level (x = 1), then the single-component relative score was arbitrarily set to 0 (gray). If a single PD component was smaller than the reference level (x < 1), then the single-component relative score was arbitrarily set to −1 (light red) or −2 (dark red). If the curve of a single PD component was best fitting to a flat line (x = 0), then the single-component relative score was arbitrarily set to −4 (purple) (Table S1).
(In general: Reporter assays use an easily measured gene product as a stand-in for the process of interest.)

In data set [2] the test system is THP-1 LUCIA monocytes. The experiment in a line: Intrinsic cytotoxicity: LDH release without LPS. The data set is classed as cell-based, human. The note with it: for Intrinsic Toxicity Level: LDH-associated level of cytotoxicity (high / moderate / low); for Intrinsic Toxicity TC50 (pM): half-maximal intrinsic LDH-associated toxic activity, no LPS. The protocol: We investigated the potential cytotoxicity of all candidate sLXms by assaying LDH release.[50] The response to LPS was arbitrarily set to 100%, and values were expressed relative to this. As previously reported by others, LPS provokes LDH release.[51] […] Ultimately, untreated cells defined the spontaneous cell release thresholds.
Lactate dehydrogenase (LDH) was assayed in cell supernatants to investigate possible cytotoxicity of the lead compound. LDH is rapidly released into the culture medium after disruption of the plasma membrane.[67],[69] After 24 h of exposure to sLXms, vehicle, or controls, followed by LPS stimulation, as described above, THP-1-Lucia NF-κB-cell supernatants were collected and LDH was assayed. Cytotoxicity was evaluated relative to vehicle controls. Maximum releasable LDH was determined in cells lysed with 2% Triton-X-100 (Sigma-Aldrich, Ireland). LDH levels were assessed by reading the absorbance at 490 nm (protein) and 690 nm (background noise), using a spectrophotometer (SPECTRAMAX M2, Molecular Devices (U.K.) Limited).
For orientation: Release of lactate dehydrogenase indicates damage to the cell membrane.

The test system of data set [3] is THP-1 LUCIA monocytes. The experiment in a line: In vitro safety study: Safety index (Si), activity versus toxicity. The note with it: for IC50: Homo sapiens, THP-1, highest IC50 among the LPS-challenged assays (NF-κB activity, cytokine, LDH release), read-out: Extrinsic Activity hIC50; for Safety Index TC50/IC50: ratio of intrinsic TC50 to extrinsic hIC50. The data set is classed as cell-based, human. On the procedure: A postanalysis “safety study” was conducted on all QNX-sLXms. For each tested compound, we calculated an in vitro “Safety index” (Si) by relating its “anti-inflammatory half-maximal activity” (the highest dose among the IC50 of the extrinsic LPS-challenged phenotype: NF-κB activity, proinflammatory cytokine, and LDH release) to its intrinsic “toxicity” (expressed as the relative half-maximal LDH-associated cytotoxicity). The generated Si is potentially predictive of a translational “therapeutic” range: the higher the Si, the safer the molecule is. As summarized in Table S4, Si values from all tested compounds fall in a broad range (7–50).

Data set [4] deals with C57bl/6 mice. Nature of the data set: Murine carrageenan-induced paw edema. The note with it: for % relative to carageenan-induced level: Veh = 100; for % relative to carageenan-induced level / % reduction relative to carageenan-induced level: (R)-6, (R)-17 2 μg/kg, Naproxen 50 mg/kg p.o.; for Paw swelling Index: Mean: n = 3. The data set is classed as in vivo, mouse. On the procedure:
Then, 50 μL of 1% carrageenan was injected with an equivalent volume of saline injected into the contralateral paw. Inflammation was presented as the difference in paw thickness over time using gauge (POCO 2T; Kroeplin, GmbH, Surrey, U.K.). Data are presented as mean ± SEM, n = 3 mice/treatment group.
A general note: Carrageenan injected into the paw causes an acute inflammation.

The subject of data set [5] is THP-1-MF0 macrophage. Nature of the data set: Phagocytosis of fluorescent E. coli bioparticles by THP-1-MF0 macrophages. The data set is classed as cell-based, human. The note with it: for (Aggregate) Rel. PD Score / Potency Rel. Pot. / Single comp. score Rel. Pot. / Single comp. score Rel Eff.: relative to LXA4 (1); for EC50: 30 min pretreatment, 2 h bioparticles, read-out: Potency EC50. The protocol: Mycoplasma-free THP-1 monocytes were grown in an RPMI 1640 (Gibco) medium containing 2 mM L-glutamine, 2.00 g/L sodium bicarbonate, and 2.00 g/L glucose. Then, 10% (v/v) heat-inactivated FBS (30 min at 56 °C) and Pen-Strep (100 U/mL to 100 μg/mL) were supplemented to the growth media.
Cell adherence was allowed for 1 h and 30 min at 37 °C/5% CO2. Cells were then treated for 30 min with controls and phagocytosis effectors for testing (vehicle, LXs, Rvs, or sLXms). Subsequently, media containing controls/effectors were vacuum-aspirated and replaced with a solution containing fluorescently prelabeled E. coli-derived bioparticles and cells were incubated in the dark for 2 h at 37 °C/5% CO2 to allow particle ingestion by monocytes/macrophages. After that, media containing bioparticles were vacuum-aspirated and replaced with a solution containing trypan blue and cells were incubated for 1 min at room temperature to allow quenching of unbound particles to ensure specificity of the fluorescent signal, deriving only from ingested particles (not shown). After aspiration of Trypan, the fluorescence reading was immediately performed at the following conditions: end point; reading from the bottom of the plate; Ex.480/Em.520 nm.

Take `CCC[C@@H](O)c1nc2ccccc2nc1/C=C/[C@@H](O)[C@@H](O)CCCC(=O)OC` [(R)-7, Methyl (5S,6R,E)-5,6-Dihydroxy-8-(3-((R)-1-hydroxybutyl)quinoxalin-2-yl)oct-7-enoate]: in data set [1], the “Rel. Slope” value is on record as 0.55, the IC50 came out at 4 nM, the “Potency Rel. Pot.” value came to 0.015 and the “Efficacy Rel. Eff.” value was 1.21. Also, in data set [1], the “IC50 (range in words)” value is on record as ““nM” range”, the “reduction of LPS-induced NF-κB-driven luciferase activity” value is 30–35%, the “(Single component) Rel. Score: Rel. Pot.” value is given as -2 (x < 0.1) and the “(Single component) Rel. Score: Rel. Sl.” value is on record as -1 (0.01 < x < 1). Besides, the “(Aggregate) Rel. PD Score” value in data set [1] was -2. In addition, in data set [2], the “Intrinsic Toxicity Level” value is “Low-Mod” and the “Intrinsic Toxicity TC50 (pM)” value was 2,000 pM. Besides, the “intrinsic LDH release versus vehicle / spontaneous cell release” value in data set [2] (absence of LPS, 24 h, controls Dex 1 μM, 2 1 pM, 5 1 pM) is “lower than the vehicle”. Also, in data set [3], the IC50 was 0.1 nM and the “Safety Index TC50/IC50” value is 20.

On to `CCC[C@H](O)c1nc2ccccc2nc1/C=C/[C@@H](O)[C@@H](O)CCCC(=O)OC` [(S)-7, Methyl (5S,6R,E)-5,6-Dihydroxy-8-(3-((S)-1-hydroxybutyl)quinoxalin-2-yl)oct-7-enoate], for which, in data set [1], the “Rel. Slope” value is 0.60, the IC50 is 1 nM, the “Potency Rel. Pot.” value turned out to be 0.1 and the “Efficacy Rel. Eff.” value is recorded as 1.50. For the same compound, in data set [1], the “IC50 (range in words)” value is ““nM” range”, the “reduction of LPS-induced NF-κB-driven luciferase activity” value is 30–35%, the “(Single component) Rel. Score: Rel. Pot.” value is given as -2 (x < 0.1) and the “(Single component) Rel. Score: Rel. Sl.” value was -1 (0.01 < x < 1). For the same compound, the “(Aggregate) Rel. PD Score” value in data set [1] is on record as -1. In addition, the “Slope HS (Hill–Slope)” value in data set [1] (slope of concentration–response curve) is on record as -6. In data set [2], the “Intrinsic Toxicity Level” value is “Low-Mod” and the “Intrinsic Toxicity TC50 (pM)” value was 110,000 pM. Also, in data set [3], the IC50 was found to be 15 nM and the “Safety Index TC50/IC50” value came out at 7.

For the compound `COc1ccc2cc([C@H](C)C(=O)O)ccc2c1` [Naproxen, reference compound], the “% relative to carageenan-induced level” value in data set [4] (4h) is on record as 118%; in data set [4] (8h), 40%; in data set [4] (24h), 55%; in data set [4] (48h), 160%; in data set [4] (72h), 550%. The figures for the “% reduction relative to carageenan-induced level” value in data set [4] (48h) and in data set [4] (72h) were 60% and 450%, respectively. Besides, the “effect on inflammatory response (paw swelling), in words” value in data set [4] ((R)-6, (R)-17 2 μg/kg ip, Naproxen 50 mg/kg po) is recorded as “inflammation persisted after 72 h”. For the same compound, the “Paw swelling Index: Mean” value in data set [4] (Time 4h, (R)-6, (R)-17 2 μg/kg ip, Naproxen 50 mg/kg po, 1% carrageenan) was 0.08; in data set [4] (Time 8h, (R)-6, (R)-17 2 μg/kg ip, Naproxen 50 mg/kg po) it was 0.16; in data set [4] (Time 24h, (R)-6, (R)-17 2 μg/kg ip, Naproxen 50 mg/kg po), 0.48; in data set [4] (Time 48h, (R)-6, (R)-17 2 μg/kg ip, Naproxen 50 mg/kg po), 0.65; in data set [4] (Time 72h, (R)-6, (R)-17 2 μg/kg ip, Naproxen 50 mg/kg po) it was 0.55.

`CC/C=C\C[C@H](O)/C=C/C=C\C=C\C=C\[C@@H](O)[C@@H](O)C/C=C\CCC(=O)O` [RvD1]: in data set [5], the “(Aggregate) Rel. PD Score” value is reported as 1, the “Potency Rel. Pot.” value came out at 10000 and the “Single comp. score Rel. Pot.” value was 2 (x ≥ 5).

With `CC[C@@H](O)/C=C/C=C\C[C@@H](O)/C=C/C=C/C=C\[C@@H](O)CCCC(=O)O` [RvE1], in data set [5], the EC50 came out at 0.001 nM, the “(Aggregate) Rel. PD Score” value was 0, the “Potency Rel. Pot.” value was found to be 5000 and the “Single comp. score Rel Eff.” value is given as -2. For the same compound, the “Single comp. score Rel. Pot.” value in data set [5] was 2 (x ≥ 5).

Consider `CCCCC[C@H](O)[C@H](O)/C=C/C=C/C=C\C=C\[C@@H](O)CCCC(=O)O` [LXB4], for which, in data set [5], the EC50 amounted to 5 nM, the “(Aggregate) Rel. PD Score” value is given as -2, the “Potency Rel. Pot.” value came to 1 and the “Single comp. score Rel Eff.” value is -2.

These data come from article PMC8279484 (Journal of Medicinal Chemistry, 2021).
